Measured values as given in patent US20250295642A1, “FLUOROQUINOXALINONE DERIVATIVE FOR SELECTIVELY INHIBITING PARP1” (MEDSHINE DISCOVERY INC., priority 2022, published 2025).

Assays:
[1] = test system: MDA-MB-436 cells (BRCA1 mutation); experiment: Anti-proliferation assay on MDA-MB-436 cells (BRCA1 mutation); type: cell-based; details: Homo sapiens, MDA-MB-436, 168 h; incubated for 7 days, chemiluminescent cell viability; read-out: IC50, proliferation inhibition on MDA-MB-436 cells (BRCA1 mutation)
Description: MDA-MB-436 cells (BRCA1 mutation) were seeded in black 96-well plates with clear bottoms. Each well contained 135 μL of cell suspension with 3,500 MDA-MB-436 cells (BRCA1 mutation). The cell plate was incubated overnight in a CO2 incubator. A 400× stock solution of the test compound was prepared. […] 78 μL of medium was added to an intermediate plate. Subsequently, 2 μL of the serially diluted compound per well was transferred to the corresponding wells of the intermediate plate. 2 μL of DMSO was added to the vehicle control and blank control. After mixing well, 15 μL of the mixture per well was then transferred to the cell plate. […] The cell plate was incubated for 7 days in a CO2 incubator. The cell plate was removed and equilibrated to room temperature for 30 minutes. 75 μL of chemiluminescent cell viability assay reagent was added to each well. The cell plate was shaken on an orbital shaker for 3 minutes to induce cell lysis, followed by 10 minutes of incubation at room temperature to stabilize the luminescent signal.

[2] = In vitro liver microsomal stability, human liver microsomes
Description: (§2) The concentration of the compound in the samples was determined by LC-MS/MS.
(§3) Experimental process: The incubation was performed using 96-well incubation plates, with individual plates labeled as T0, T5, T15, T30, T45, T60, Blank60, and NCF60. The reaction time points corresponding to the incubation plates were set at 0, 5, 15, 30, 45, and 60 minutes. In the Blank60 plate, no test compound or control compound was added, and the sample was collected after 60 minutes of incubation. In the NCF60 plate, potassium phosphate buffer was used in place of the NADPH regeneration system and incubated for 60 minutes. All time point samples were taken from individual wells.
For the T0, T5, T15, T30, T45, T60, and NCF60 plates, 5 μL of either the test or control compound working solution and 100 μL of microsomal working solution (with a liver microsomal protein concentration of 0.5 mg/mL) were added. Only microsomal working solution was added to the Blank60 well. In the Blank60 plate, only the microsomal working solution was added. Then, the incubation plates, except for TO and NCF60, including Blank60, T5, T15, T30, T45, and T60, were pre-incubated in a 37° C. water bath for approximately 10 minutes.
For samples in the TO plate, 180 μL of stop solution (where the stop solution was a solution of acetonitrile and methanol (95:5, V/V) containing 100 ng/mL tolbutamide) was added before adding the NADPH regeneration system working solution.
50 μL of potassium phosphate buffer was added to each well of the NCF60 plate and incubated for 60 minutes.
After the pre-incubation of Blank60, T5, T15, T30, T45, and T60 incubation plates, 44 μL of NADPH regeneration system working solution was added to each sample well to initiate the reaction. Therefore, for sample wells containing either the test compound or the control compound working solutions, the final reaction concentration was 1 μM, with the concentration of liver microsomes at 0.5 mg/mL. The final concentrations of DMSO and acetonitrile in the reaction system were 0.01% (v/v) and 0.99% (v/v), respectively.
After incubation for an appropriate period (e.g., 5, 15, 30, 45, and 60 minutes), 180 μL of stop solution was added to each test compound and control compound sample well in the Blank60, T5, T15, T30, T45, T60, and NCF60 plates to stop the reaction.
All sample plates were shaken thoroughly and centrifuged for 10 minutes. A volume of 80 μL of the supernatant from each test compound was diluted to 240 L with a solution of acetonitrile (1:9, v/v) containing 0.1% formic acid for LC-MS/MS analysis.

[3] = In vitro liver microsomal stability, mouse liver microsomes
Description: as §2, §3
For the T0, T5, T15, T30, T45, T60, and NCF60 plates, 5 μL of either the test or control compound working solution and 100 μL of microsomal working solution (with a liver microsomal protein concentration of 0.5 mg/mL) were added. Only microsomal working solution was added to the Blank60 well. In the Blank60 plate, only the microsomal working solution was added. Then, the incubation plates, except for TO and NCF60, including Blank60, T5, T15, T30, T45, and T60, were pre-incubated in a 37° C. water bath for approximately 10 minutes. […]

[4] = target: PARP2 (Homo sapiens (Human), UniProt Q9UGN5); experiment: Binding activity between compound and PARP2, fluorescence polarization assay; details: 3 nM PARP2, 5 nM fluorescent probe, 4 hours at room temperature
Description: (§1) The fluorescence polarization assay was performed in 96-well black-walled plates (Greiner). The reaction buffer consisted of 50 mM Tris (pH 8), 0.001% Triton X100, 10 mM MgCl2, and 150 mM NaCl. Both the fluorescent probe and His-Avi-tagged PARP2 protein were manufactured by WuXi AppTec (Shanghai). In a 100 μL reaction system, 3 nM PARP2, 5 nM fluorescent probe, and the compounds were added respectively. The compound concentration was prepared following the starting concentration and dilution gradient in Table 2. The test sample was incubated at room temperature for 4 hours, protected from light. Fluorescence polarization values were measured using an EnVision plate reader. The obtained fluorescence polarization values and compound concentrations were subjected to nonlinear fitting using GraphPad 8.0 software to determine the IC50 values.

[5] = target: PARP1 (Homo sapiens (Human), UniProt P09874); experiment: Binding activity between compound and PARP1, fluorescence polarization assay; details: 8 nM PARP1, 5 nM fluorescent probe, 4 hours at room temperature
Description: as §1, with “PARP1” for “PARP2”, “8” for “3”, “PARP1,” for “PARP2,”, “1. […]” for “2.”, “En Vision” for “EnVision”

[6] = test system: DLD1 (BRCA2 KO) cells; experiment: Anti-proliferation assay on DLD1 cells (BRCA2 KO); type: cell-based; details: Homo sapiens, DLD-1, 168 h; incubated for 7 days, chemiluminescent cell viability
Description: DLD1 (BRCA2 KO) cells were seeded in white a 96-well plate with 80 μL of cell suspension per well, containing 1,000 DLD1 (BRCA2 KO) cells per well. The cell plate was incubated overnight in a CO2 incubator. The test compounds were 5-fold diluted with a multi-channel pipette to the 8th concentration, i.e., diluted from 2 mM to 0.0256 μM, and duplicate experiment was set. 78 μL of medium was added to an intermediate plate. Subsequently, 2 μL of the serially diluted compound per well was transferred to the corresponding wells of the intermediate plate and mixed well. 20 μL of the mixture per well was then transferred to the cell plate. The concentration of the compound transferred to the cell plate ranged from 10 μM to 0.128 nM. The cell plate was incubated for 7 days in a CO2 incubator. An additional cell plate was prepared to read the signal value on the day of compound addition, which served as the maximum value (Max in the following equation) for data analysis. The cell plate was added with 25 μL of chemiluminescent cell viability assay reagent per well and incubated at room temperature for 10 minutes to stabilize the luminescent signal. A multimode microplate reader was used for reading. […].

Chain of PARP1 (P09874 whole entry): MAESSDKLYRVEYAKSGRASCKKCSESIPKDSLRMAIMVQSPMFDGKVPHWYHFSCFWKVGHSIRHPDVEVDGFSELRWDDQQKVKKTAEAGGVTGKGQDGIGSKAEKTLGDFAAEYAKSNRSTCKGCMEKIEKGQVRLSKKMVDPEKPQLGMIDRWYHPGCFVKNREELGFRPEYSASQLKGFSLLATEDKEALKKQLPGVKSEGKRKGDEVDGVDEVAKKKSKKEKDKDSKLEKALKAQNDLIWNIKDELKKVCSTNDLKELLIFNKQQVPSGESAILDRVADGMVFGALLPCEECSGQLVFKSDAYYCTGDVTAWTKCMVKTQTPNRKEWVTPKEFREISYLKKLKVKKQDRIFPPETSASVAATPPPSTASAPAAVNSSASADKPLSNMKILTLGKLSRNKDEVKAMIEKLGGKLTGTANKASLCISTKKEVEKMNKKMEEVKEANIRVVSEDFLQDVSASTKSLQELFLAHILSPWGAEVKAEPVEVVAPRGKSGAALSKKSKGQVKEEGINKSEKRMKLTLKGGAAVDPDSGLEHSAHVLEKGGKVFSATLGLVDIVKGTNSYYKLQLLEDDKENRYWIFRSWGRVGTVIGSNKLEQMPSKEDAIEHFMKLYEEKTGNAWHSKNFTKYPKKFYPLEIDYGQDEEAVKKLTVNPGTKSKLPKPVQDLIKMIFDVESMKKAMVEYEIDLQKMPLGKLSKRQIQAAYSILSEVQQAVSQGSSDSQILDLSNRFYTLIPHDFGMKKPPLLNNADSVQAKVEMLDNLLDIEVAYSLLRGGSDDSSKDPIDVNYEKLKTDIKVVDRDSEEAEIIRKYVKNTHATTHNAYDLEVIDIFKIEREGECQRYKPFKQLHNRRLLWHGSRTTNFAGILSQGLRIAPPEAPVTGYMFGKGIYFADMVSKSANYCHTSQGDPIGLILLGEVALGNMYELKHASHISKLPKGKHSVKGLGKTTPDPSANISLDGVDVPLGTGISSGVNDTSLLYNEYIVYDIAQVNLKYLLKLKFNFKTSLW
Chain of PARP2 (Q9UGN5 whole entry): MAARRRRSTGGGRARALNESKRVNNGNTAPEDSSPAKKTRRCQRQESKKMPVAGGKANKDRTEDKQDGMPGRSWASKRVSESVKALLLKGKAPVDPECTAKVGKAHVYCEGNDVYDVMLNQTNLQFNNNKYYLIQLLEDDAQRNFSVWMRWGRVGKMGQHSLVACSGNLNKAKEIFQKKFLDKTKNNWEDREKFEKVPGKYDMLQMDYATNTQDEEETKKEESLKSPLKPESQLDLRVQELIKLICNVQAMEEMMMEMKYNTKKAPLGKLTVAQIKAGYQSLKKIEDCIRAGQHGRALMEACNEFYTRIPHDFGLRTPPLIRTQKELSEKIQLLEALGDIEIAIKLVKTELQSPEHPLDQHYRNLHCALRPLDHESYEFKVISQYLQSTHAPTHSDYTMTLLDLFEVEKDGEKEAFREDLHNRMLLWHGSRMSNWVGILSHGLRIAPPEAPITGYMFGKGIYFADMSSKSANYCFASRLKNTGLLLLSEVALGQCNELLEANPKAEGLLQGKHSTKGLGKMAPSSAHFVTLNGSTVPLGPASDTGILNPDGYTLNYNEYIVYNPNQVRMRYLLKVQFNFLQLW

Row | IC50 [5] | Compound | IC50 [1] | also measured
1 |  | CNC(=O)c1ccc(C2=CCN(Cc3ccc4c([nH]c(=O)c5cccnc54)c3F)CC2)c(F)n1 [Compound 27] | 0.69 nM | CLint scaled at 1 μM [2]: 9.5 mL/min/kg; half-life at 1 μM [2]: 2.2 h
2 |  | CNC(=O)c1ccc(C2=CCN(Cc3ccc4c([nH]c(=O)c5cccn54)c3F)CC2)c(F)n1 [Compound 28] | 0.37 nM | 
3 |  | [2H]C([2H])([2H])NC(=O)c1ccc(N2CCN(Cc3ccc4c([nH]c(=O)c5cccnc54)c3F)CC2)c(F)n1 [Compound 29] | 1.14 nM | CLint scaled at 1 μM [3]: < 38 mL/min/kg
4 |  | [2H]C([2H])(c1ccc2c([nH]c(=O)c3cccnc32)c1F)N1CCN(c2ccc(C(=O)NC)nc2F)CC1 [Compound 44] | 0.65 nM | 
5 |  | [2H]C([2H])(c1ccc2c([nH]c(=O)c3cccnc32)c1F)N1CCN(c2ccc(C(=O)NC)nc2Cl)CC1 [Compound 45] | 0.27 nM | 
6 | 7.9 nM | CNC(=O)c1ccc(N2CCN(Cc3ccc4c([nH]c(=O)c5cc(F)cnc54)c3F)CC2)c(Cl)n1 [Compound 50] | 0.41 nM | IC50 [4]: > 20000 nM
7 | 5.5 nM | [2H]C([2H])([2H])NC(=O)c1ccc(N2CCN(Cc3ccc4c([nH]c(=O)c5cc(F)cnc54)c3F)CC2)c(Cl)n1 [Compound 52] |  | 
8 |  | CNC(=S)c1ccc(N2CCN(Cc3ccc4nc(C)c(=O)[nH]c4c3F)CC2)c(F)n1 [Trifluoroacetate of compound 5] | 1.2 nM | 
9 | 14 nM | CNC(=O)c1ccc2c(n1)CC[C@H]1CN(Cc3c(F)cc4nc(C)c(=O)[nH]c4c3F)CCN21 [Trifluoroacetate of compound 19] |  | IC50 [4]: > 50000 nM; IC50 [6]: 24.2 nM
10 |  | CNC(=O)c1ccc(N2CCN(Cc3cc(F)c4nc(C)c(=O)[nH]c4c3F)CC2)c(F)n1 [Trifluoroacetate of compound 22] | 5.73 nM | IC50 [6]: 4.43 nM

Row | Compound | IC50 [5] | IC50 [1] | also measured
11 | [2H]C([2H])([2H])NC(=O)c1ccc(C2=CCN(Cc3ccc4c([nH]c(=O)c5cccnc54)c3F)CC2)c(F)n1 [Compound 31] | 4.7 nM | 0.75 nM | IC50 [4]: > 20000 nM; CLint scaled at 1 μM [2]: < 8.6 mL/min/kg; half-life at 1 μM [2]: > 2.42 h
